Positions of bridges follow the written chain, without caps; N, C: chain ends. Residues, ends and D or L forms follow the SMILES beside them. *: point of attachment. X1 = O=C(CON=C[C@H](O)[C@H](O)[C@H](O)CF)*; AEEA = NCCOCCOCC(=O)O
Assays:
[1] = test system: rats with skin/muscle inflammation (turpentine oil); type: in vivo, rat
Method: Rats were divided into two groups with Group 1 being intravenously (i.v.) given ^68Ga-DOTA-Siglec-9 (16 ± 2.9 MBq, n = 8) and Group 2 ^18F-FDR-Siglec-9 (18 ± 5.1 MBq, n = 8). A 60 min dynamic PET acquisition was performed on a High Resolution Research Tomograph (HRRT; Siemens Medical Solutions, Knoxville, TN, USA). The PET data were reconstructed into 5 × 60 s and 11 × 300 s frames using an ordered-subsets expectation maximization 3D algorithm (OSEM3D). Quantitative PET image analysis was performed by defining regions of interest (ROIs) within the inflamed area (on the left foreleg), control area (on the right foreleg), kidneys, lungs, heart, liver, and urinary bladder using […] 2.8 software (Turku PET Centre). Results were expressed as standardized uptake values (SUV) and time-activity curves. SUV was calculated as a ratio of tissue radioactivity concentration (Bq/mL) and given radioactivity dose (Bq) divided by animal's body weight.

[2] = test system: LDLR^−/−ApoB^100/100 atherosclerotic mice; assay: PET/CT imaging of atherosclerotic mice; type: in vivo, mouse; conditions: atherosclerotic LDLR^−/−ApoB^100/100 mice, 10–20 min after injection, mean ± SD, n = 2
Method: Six-month-old atherosclerotic low-density lipoprotein receptor-deficient mice (weight, 27 ± 4.1 g; n = 19) expressing only apolipoprotein B100 (LDLR^−/−ApoB^100/100, strain #003000; Jackson Laboratory, Bar Harbor, ME, USA) were fed for 4 months with a Western-type diet. Two-month-old C57BL/6N mice (weight, 24 ± 2.2 g; n = 13) fed with a regular chow served as controls.
A subset of mice (two atherosclerotic, two controls) were injected with 4.7 ± 1.1 MBq of ^18F-FDR-Siglec-9 and imaged with an Inveon Multimodality PET/CT (Siemens, Medical Solutions, Knoxville, TN, USA). Dynamic PET images were acquired for 60 min, followed by CT with a contrast agent (eXIATM160XL, Binitio Biomedical Inc., Ottawa, ON, Canada). The PET images were reconstructed with OSEM3D (frames 5 × 60 s, 3 × 300 s, 1 × 600 s, […]).
Quantitative PET image analysis was performed by defining ROIs in the heart left ventricle (blood pool) and aortic arch as identified on the basis of the CT angiography by using the Inveon Research Workplace software (Siemens Medical Solutions, Knoxville, TN, USA). Time frames 10–20 min after injection were used for PET quantification, as previously reported in the same mouse model using ^68Ga-DOTA-Siglec-9 [4]. The results within ROIs were expressed as SUV and target-to-background ratio (SUVmax,aortic arch/SUVmean,blood).

[3] = Sprague-Dawley rats, turpentine oil skin/muscle inflammation, i.v., dynamic PET 10–60 min, mean ± SD, SD

time of peak uptake in the inflamed area after the i.v. bolus injection ([1]; rat, in vivo, iv): about 10 min
SMILES: CC(C)C[C@@H]1NC(=O)CNC(=O)[C@H](CCCNC(=N)N)NC(=O)[C@H](Cc2c[nH]c3ccccc23)NC(=O)[C@H](CO)NC(=O)[C@H](CC(C)C)NC(=O)[C@H](CO)NC(=O)[C@H](CC(C)C)NC(=O)[C@H](CCCNC(=N)N)NC(=O)[C@H](C)NC(=O)[C@@H](NC(=O)COCCOCCNC(=O)CON=C[C@H](O)[C@H](O)[C@H](O)CF)CSSC[C@@H](C(=O)N2CCC[C@H]2C(=O)N[C@@H](CO)C(=O)N[C@@H](CCCCN)C(=O)O)NC(=O)[C@H](CC(C)C)NC(=O)[C@H]([C@@H](C)O)NC1=O [^18F-FDR-Siglec-9] ({X1-AEEA}-CARLSLSWRGLTLCPSK-OH; disulfide 1-14; N-terminus and C-terminus assumed)
SUVmean,10–60 min in the inflamed area ([1]; Sprague-Dawley rats, turpentine oil skin/muscle inflammation, i.v., dynamic PET 10–60 min, mean ± SD, n = 5 (68Ga) or 8 (18F), SD): 0.77 ± 0.22 | SUVmax,10–60 min in the inflamed area [1, 3]: 1.1 ± 0.097 | inflammation-to-blood ratio 10–60 min (PET) [1, 3]: 1.7 ± 0.51 | target-to-background ratio (SUVmax,aortic arch/SUVmean,blood) [2]: 1.6 ± 0.078

— paper PMC5804415, “Comparison of ^68Ga-DOTA-Siglec-9 and ^18F-Fluorodeoxyribose-Siglec-9: Inflammation Imaging and Radiation Dosimetry” (Contrast Media & Molecular Imaging, 2017)
